# US20170274001A1, “Compositions and Methods for Increasing Red Blood Cells” (Yale University, priority 2014, published 2017)
# Entries after “also recorded” stand apart in the source; their conditions may differ.
# Tests used:
# scavenger receptor B1 = target: T1, scavenger receptor B1 (Mus musculus, UniProt Q61009); assay: Clearance of infused human RBCs from peripheral blood of RGSKI mice after blocking scavenger receptor B1 (FIG. 4); format: in vivo; conditions: BLT-1 80 mg/kg body weight one hour before human RBC infusion, control DMSO
# T1 construct: endogenous in cells; host or cells: RGSKI mice (whole animal, in vivo)
# T1 sequence (Q61009 1-509): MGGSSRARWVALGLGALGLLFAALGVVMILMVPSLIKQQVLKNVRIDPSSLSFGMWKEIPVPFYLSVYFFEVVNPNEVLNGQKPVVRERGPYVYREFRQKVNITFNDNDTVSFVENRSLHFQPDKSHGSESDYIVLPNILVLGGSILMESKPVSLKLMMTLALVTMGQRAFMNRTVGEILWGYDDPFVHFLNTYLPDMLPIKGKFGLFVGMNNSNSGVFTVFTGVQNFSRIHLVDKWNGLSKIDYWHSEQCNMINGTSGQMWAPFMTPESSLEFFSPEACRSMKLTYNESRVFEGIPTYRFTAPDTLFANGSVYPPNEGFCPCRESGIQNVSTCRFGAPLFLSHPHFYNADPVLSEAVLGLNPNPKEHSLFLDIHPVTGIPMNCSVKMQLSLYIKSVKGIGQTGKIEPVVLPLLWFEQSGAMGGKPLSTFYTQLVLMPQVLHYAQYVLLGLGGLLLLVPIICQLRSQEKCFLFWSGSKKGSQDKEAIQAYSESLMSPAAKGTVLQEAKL
# Protocol: RGSKI mice were treated with scavenger receptor B1 named BLT-1 (80 mg/kg body weight). One hour after treatment, mice were infused with human RBCs and peripheral blood was collected at indicated time points. Control: DMSO.
# human RBCs = assay: Clearance of infused human RBCs from peripheral blood of RGSKI mice after blocking macrophage receptors (FIG. 3); format: in vivo; conditions: RGSKI mice treated one hour before human RBC infusion, D-4F 10 mg/mouse, control PBS, peripheral blood by FACS
# Protocol: D-4F blocks several scavenger receptors. RGSKI mice were treated with different antibodies or inhibitors to block various macrophage receptors. One hour after treatment, mice were infused with human RBCs and peripheral blood was collected at indicated time points. Anti-Dectin: 50 ug/mouse; Anti-CD169: 50 ug/mouse; Anti-CD169 clone 3D6: 100 ug/mice; Anti-Mannose receptor: 50 ug/mouse; D-4F: 10 mg/mouse; Asialofetuin: 10 mg/mouse; Control: PBS.
# First, an experiment was conducted to examine the clearance of human red blood cells in mouse peripheral blood. Human and mouse red blood cells were pre-labeled with CFSE or violet dye, respectively, and then were transfused into RGSKI mice by retro-orbital injection. Peripheral blood was collected 5 minutes after blood infusion and the frequency of infused mouse or human RBCs was determined by FACS. It was observed that the frequency of infused human RBCs decreased more rapidly than mouse RBCs (FIG. 1B).
# Experiments were then performed to evaluate the role of the scavenger receptor in RBC clearance. D-4F is an apolipoprotein A-I mimetic peptide and a general scavenger receptor inhibitor. D-4F is an 18 D-amino acid peptide (Ac-D-W-L-K-A-F-Y-D-K-V-A-E-K-L-K-E-A-F—NH2; SEQ ID NO: 2). […] Other pathways which might involve in the destruction of human RBCs in the periphery were also tested.
# [1] = Navab et al., 2006; cited from earlier work
Molecule,percent of remaining RBCs in the periphery after human RBC infusion (scavenger receptor B1),protection of infused human RBCs in the periphery (human RBCs),protection of infused human RBCs in the periphery (human RBCs; listed as D4-F),"cholesterol efflux, inflammation and atherosclerosis [1]"
"CCCCCCC1CCCC1=NNC(N)=S (stereo not shown) [BLT-1, 2-Hexyl-1-cyclopentanone thiosemicarbazone]",can protect infused human RBCs in the mouse system; also recorded: increases the percent of remaining RBCs in the periphery,,,
Ac-D-W-L-K-A-F-Y-D-K-V-A-E-K-L-K-E-A-F—NH2 (DWLKAFYDKVAEKLKEAF; HELM PEPTIDE1{[ac].[dD].[dW].[dL].[dK].[dA].[dF].[dY].[dD].[dK].[dV].[dA].[dE].[dK].[dL].[dK].[dE].[dA].[dF].[am]}$$$$V2.0; SMILES CC(=O)N[C@H](CC(=O)O)C(=O)N[C@H](Cc1c[nH]c2ccccc12)C(=O)N[C@H](CC(C)C)C(=O)N[C@H](CCCCN)C(=O)N[C@H](C)C(=O)N[C@H](Cc1ccccc1)C(=O)N[C@H](Cc1ccc(O)cc1)C(=O)N[C@H](CC(=O)O)C(=O)N[C@H](CCCCN)C(=O)N[C@@H](C(=O)N[C@H](C)C(=O)N[C@H](CCC(=O)O)C(=O)N[C@H](CCCCN)C(=O)N[C@H](CC(C)C)C(=O)N[C@H](CCCCN)C(=O)N[C@H](CCC(=O)O)C(=O)N[C@H](C)C(=O)N[C@H](Cc1ccccc1)C(N)=O)C(C)C) [D-4F],,blocks in vivo destruction of human RBCs,protected infused human RBCs in the periphery,increase cholesterol efflux and reduce inflammation and atherosclerosis
